Measurements: patent US20250186646A1, “Use of Volatile Compositions to Limit or Eliminate Perception of Fecal Malodour” (Firmenich SA, priority 2016, published 2025)

Legend:
p-cresol = experiment: Reduction of perceived intensity of p-cresol by MOCs (Table 16); type: in vivo; conditions: for p-cresol Dyn Conc: concentration at which the MOC reduces the perceived intensity of p-cresol; for p-cresol Reduction: perceived intensity of p-cresol, at the Dyn Conc
butyric acid = experiment: Reduction of perceived intensity of butyric acid by MOCs (Table 16); type: in vivo; conditions: for Butyric acid Dyn Conc: concentration at which the MOC reduces the perceived intensity of butyric acid; for Butyric acid Reduction: perceived intensity of butyric acid, at the Dyn Conc
indole = experiment: Reduction of perceived intensity of indole by MOCs (Table 16); type: in vivo; conditions: for Indole Dyn Conc: concentration at which the MOC reduces the perceived intensity of indole; for Indole Reduction: perceived intensity of indole, at the Dyn Conc
DMTS = experiment: Reduction of perceived intensity of DMTS by MOCs (Table 16); type: in vivo; conditions: for DMTS Dyn Conc: concentration at which the MOC reduces the perceived intensity of DMTS; for DMTS Reduction: perceived intensity of DMTS, at the Dyn Conc
[1] = test system: fecal malodour reconstitution; experiment: Olfactometer blind sensory evaluation of test and control formulations (Example 15); type: in vivo; design: Fecal Score / Freshness Score / Pleasantness Score: scale not given here; conditions: for Fecal Score: in combination with fecal reconstitution; for Fecal Score left: relative to fecal reconstitution alone (100)
Description: (§1) The performance of a test formulation containing LILYFLORE, Violet AT and Isoraldeine to counteract the fecal malodour perceived from a fecal malodour reconstitution was tested. The amount of each single ingredient in the test formulation was the same as the corresponding concentration of the ingredient that was incorporated into the Floral compositions. Separate control formulations were also included, comprising LILYFLORE, Violet AT and Isoraldeine separately, at the same concentration as each single ingredient in the test formulation. The sensory evaluation was blind, and performed using olfactometers and a set of more than 30 participants evaluating blind. In parallel, the headspace concentration of the ingredients from the test and three control formulations was determined.
as §1, with “of another” for “of a”, “and dihydrolinalol” for “and Isoraldeine”, “tested.” for “tested. The amount of each single ingredient in the test formulation was the same as the corresponding concentration of the ingredient that was incorporated into the Floral compositions.”
The performance of another test formulation containing LILYFLORE, isoraldeine, Violet AT and dihydrolinalol to counteract the fecal malodour perceived from a fecal malodour reconstitution was tested. Separate control formulations were also included, comprising LILYFLORE, Violet AT, isoraldeine and dihydrolinalol separately, at the same concentration as each single ingredient in the test formulation. The sensory evaluation was blind, and performed using olfactometers and a set of more than 30 participants evaluating blind. In parallel, the headspace concentration of the ingredients from the test and […] control formulations was determined.

[2] = Olfactory detection thresholds (ODT); conditions: gas phase
butyric acid receptors = experiment: Ex vivo live neuron assay antagonism screening; type: cell-based, mice; conditions: butyric acid malodour target
Excerpt: In the ex vivo live neuron assay, olfactory sensory neurons (OSNs) are extracted from the olfactory epithelium of mice and can be tested for responses to sequentially delivered stimuli, where responses are detected through live-cell calcium-imaging microscopy. It has been established through prior research in the field that the vast majority of extracted OSNs express 1 out of the approximately 1200 odourant receptors (ORs) present in the genome of a mouse, such that in our samples of extracted OSNs, the majority of the 1200 ORs should have been represented in at least one OSN. Since the responses of the OSNs to the delivered stimuli are entirely driven by the expressed OR, the OSNs selectively detect and collectively encode the identity and intensity of odourants. By stimulating the OSNs with MO molecules and measuring the response of each OSN, the subset in which a response is induced is those that detect and therefore presumably encode the MO. By subsequently delivering a mixture of MO and a candidate antagonist to the same cells, the degree of suppression of signal in each MO-responsive OSN can be determined (“level of inhibition”). […] In addition, the proportion of MO-responsive OSNs displaying low, medium and high inhibition was calculated. […]

Compound	p-cresol Dyn Conc (p-cresol) [µg/L]	p-cresol Reduction (p-cresol)	Butyric acid Dyn Conc (butyric acid) [µg/L]	Butyric acid Reduction (butyric acid)	Indole Dyn Conc (indole) [µg/L]	Indole Reduction (indole)	DMTS Dyn Conc (DMTS) [µg/L]	DMTS Reduction (DMTS)	Fecal % Redn ([1]; Table 20) [%]	Freshness Score ([1]; Table 20)	Pleasantness Score ([1]; Table 20)	Fecal Score ([1]; Table 20)	Fecal Score left ([1]; Table 20)	olfactory detection thresholds (ODT) [2] [µg/L]	other results
C/C=C/C(=O)C1C(C)=CCCC1(C)C (racemic) [Alpha damascone, (+−)-(2E)-1-(2,6,6-trimethyl-2-cyclohexen-1-yl)-2-buten-1-one]	0.0413	62	0.041	43											
CC(C)=CCCC(C)CCO (racemic) [Citronellol BJ, (+−)-3,7-DIMETHYL-6-OCTEN-1-OL]	0.11	61	0.0947	55	0.252	65									
CCCCCC1CCCC1=O (racemic) [Delphone, (+−)-2-pentylcyclopentanone]	0.0488	64					0.046	67							
C=CC(C)(O)CCCC(C)C (racemic) [Dihydrolinalol, (+−)-3,7-DIMETHYL-1-OCTEN-3-OL]			0.76	64					30	3.2	3.2	6.1	70	0.00137	Fecal % Redn ([1]; Table 19): 35%; Freshness Score ([1]; Table 19): 3.9; Pleasantness Score ([1]; Table 19): 3.5; Fecal Score ([1]; Table 19): 5.6; Fecal Score left ([1]; Table 19): 65; antagonism of malodour receptors (butyric acid receptors): antagonist of butyric acid receptors
Cc1ccc2c(c1)CC(C)(CO)C2 (racemic) [LILYFLORE, (+−)-2,5-DIMETHYL-2-INDANMETHANOL]	0.22	76	0.0351	58	0.206	81	0.126	64	45	3.9	3.8	4.8	55	0.000128	Fecal % Red ([1]; Table 18): 56%; Freshness Score ([1]; Table 18): 4.4; Pleasantness Score ([1]; Table 18): 4.8; Fecal Score ([1]; Table 18): 3.8; Fecal Score left ([1]; Table 18): 44; Fecal % Redn ([1]; Table 19): 45%; Freshness Score ([1]; Table 19): 4.0; Pleasantness Score ([1]; Table 19): 4.1; Fecal Score ([1]; Table 19): 4.7; Fecal Score left ([1]; Table 19): 55
CC(=O)OC(c1ccccc1)C(Cl)(Cl)Cl (racemic) [Rosinol Cryst, (+−)-2,2,2-TRICHLORO-1-PHENYLETHYL ACETATE]							0.659	38							
CC(=O)OCc1ccccc1 [Benzyl acetate, Benzyl Acetate]			1.31	54											
CCCCCC/C(C=O)=C\c1ccccc1 [Hexylcinnamic aldehyde, (2E)-2-benzylideneoctanal]	1.34	39	1.34	26											
OCCc1ccccc1 [Phenylethyl alcohol, 2-PHENYLETHANOL]	0.318	49			0.538	46	1.03	55							
(1RS,2RS)-2,4-dimethyl-3-cyclohexene-1-carbaldehyde (A) + (1RS,2SR)-2,4-dimethyl-3-cyclohexene-1-carbaldehyde (B) [Zestover]	0.0607	66	0.0809	68	0.348	82	0.38	78							
(+−)-(3E)-3-methyl-4-(2,6,6-trimethyl-2-cyclohexen-1-yl)-3-buten-2-one (A) + (+−)-(1E)-1-(2,6,6-trimethyl-2-cyclohexen-1-yl)-1-penten-3-one (B) [Isoraldeine 70P]	0.0674	49	0.0674	25	0.542	79	0.216	69	49	4.6	4.5	4.4	51	0.000192	Fecal % Red ([1]; Table 18): 58%; Freshness Score ([1]; Table 18): 4.8; Pleasantness Score ([1]; Table 18): 5.1; Fecal Score ([1]; Table 18): 3.6; Fecal Score left ([1]; Table 18): 42
(+−)-(3E)-4-(2,6,6-trimethyl-2-cyclohexen-1-yl)-3-buten-2-one (A) + (3E)-4-(2,6,6-trimethyl-1-cyclohexen-1-yl)-3-buten-2-one (B) [Violet AT]	0.133	85	0.123	55	0.133	72	0.151	81	44	4.1	4.2	4.9	56	0.000508	Fecal % Red ([1]; Table 18): 58%; Freshness Score ([1]; Table 18): 4.7; Pleasantness Score ([1]; Table 18): 5.0; Fecal Score ([1]; Table 18): 3.6; Fecal Score left ([1]; Table 18): 42; Fecal % Redn ([1]; Table 19): 53%; Freshness Score ([1]; Table 19): 4.5; Pleasantness Score ([1]; Table 19): 4.8; Fecal Score ([1]; Table 19): 4.1; Fecal Score left ([1]; Table 19): 47
